Tests used:
[1] = test system: LPS-stimulated microglia BV2 cells; experiment: Cellular NO production in LPS-stimulated BV2 microglia; format: cell-based; conditions: for NO inhibition (SAR statement) / reduction in NO content: 20 μM; for NO inhibition (SAR statement): relative to analogues with intact C-6–C-7 / C-11–C-12 motifs; for reduction in NO content: vs LPS control cells
Description: (§1) The cellular NO levels were determined using a Nitric Oxide Assay Kit with DAF-FM DA (Beyotime, Nantong, China). A total of 5000 cells were planted in 96-well plates and maintained for 24 h. Then, they were induced with 1 μg/mL lipopolysaccharide (LPS) in the presence or absence of compounds at a final concentration of 20 μM for 24 h. Untreated wells were used as control. Then, supernatant of the culture medium was investigated with a Nitric Oxide Assay Kit with DAF-FM DA (Beyotime, S0020S) per the manufacturer’s instruction. Cells were stained with 2 µM hochest 33,342 at room temperature for 10 min, then cell numbers were auto-counted using the high-content screening system. The cell number in the LPS control group was set as 100%, and the relative cell survival ratios were calculated.

[2] = test system: LPS-treated BV2 microglia cells; experiment: Inflammatory markers in LPS-treated microglia cells (Western blot); format: cell-based; conditions: 2.5, 5, 10 μM
Description: (§2) Cells or tissues were lysed with RIPA lysis buffer containing protease and phosphatase inhibitor cocktail and total protein was extracted and quantified by using a protein determination kit (Thermo Fisher Scientific, Cat#23227, Beijing, China). Protein samples were prepared by centrifugation at the speed of 12,000× g for 30 min at 4 °C; the supernatant was boiled at 95 °C for 10 min and then subjected to SDS-PAGE. An amount of 15 µg of total protein was separated by electrophoresis in a 10% SDS-polyacrylamide gel and transferred to a PVDF membrane (Thermo Fisher Scientific, Cat#88520, Beijing, China). After blocking, the full membranes were cropped according to the molecular weight of examined proteins and incubated with antibodies at 4 °C overnight. The used antibodies were listed as follows: anti-iNOS (Abcam, ab178945, Cambridge, UK), anti-COX2 (Affinity, AF7003, Changzhou, China), anti-actin (Affinity Biosciences, AF7018, Changzhou, China), anti-ARG1 (Proteintech, 66129, Wuhan, China), anti-IL-1β (Proteintech, 26048, Wuhan, China), anti-GAPDH (Bioss, bs-41373R, Beijing, China), anti-IL-6 (Affinity, DF6087, Changzhou, China), anti-TNFα (Affinity, AF7014, Changzhou, China), anti-IBA1 (Affinity, DF6442, Changzhou, China). […] The average protein levels of control group cells or control mice from each independent experiment or mice were set as 1, and relative changes were calculated.

[3] = BV2 cell viability / proliferation (CCK-8, cell count); format: cell-based; conditions: mouse; BV2 cells, 24 h; read-out: IC50 against BV2 cell proliferation (cytotoxicity)
Description: as §1
(§3) BV2 microglial cells were seeded into 96-well plates at a density of 1 × 10^4 cells/well and allowed to adhere for 24 h. Cells were then exposed to different concentrations (20 μM for 1–9; 0, 1, 5, 10, 20, 50, 100 μM for 5) of the test compounds (1–9) in triplicate, with DMSO concentrations normalized across all treatment groups. After 24 h incubation, 10 μL CCK-8 reagent (Beyotime Biotechnology, Nantong, China) was added to each well, followed by 30 min incubation at 37 °C. Absorbance at 450 nm was quantified using a BioTek microplate reader (BioTek, Winooski, VT, USA), with cell viability calculated relative to vehicle-treated controls.

Ehrlich carcinoma cells = test system: Ehrlich carcinoma cells; parameters: method as in doi:10.1007/s10600-014-0836-9; conditions: cited from earlier work
NF-κB p65 = NF-κB p65 signaling pathway (Western blot); format: cell-based; conditions: 2.5, 5, 10 μM, LPS-treated BV2 cells
Description: as §2

Echinochloa crus-galli = test system: Echinochloa crus-galli; parameters: method as in PMID 25603174; conditions: read-out: IC50 herbicidal effect (radicle growth); cited from earlier work
LPS-treated mice = experiment: LPS-induced neuroinflammation mouse model (cortex and hippocampus); format: in vivo; conditions: intraperitoneal; for expression levels of IBA1 in cortex / inflammatory markers iNOS, COX2, IL-1β, IL-6 in cortex (mRNA and protein) / protein level of ARG 1 in cortex: 5 at 10, 20, 40 mg/kg or Dex 15 mg/kg
Description: Cells or tissues were lysed with RIPA lysis buffer containing protease and phosphatase inhibitor cocktail and total protein was extracted and quantified by using a protein determination kit (Thermo Fisher Scientific, Cat#23227, Beijing, China). Protein samples were prepared by centrifugation at the speed of 12,000× g for 30 min at 4 °C; the supernatant was boiled at 95 °C for 10 min and then subjected to SDS-PAGE. An amount of 15 µg of total protein was separated by electrophoresis in a 10% SDS-polyacrylamide gel and transferred to a PVDF membrane (Thermo Fisher Scientific, Cat#88520, Beijing, China). After blocking, the full membranes were cropped according to the molecular weight of examined proteins and incubated with antibodies at 4 °C overnight. The used antibodies were listed as follows: anti-iNOS (Abcam, ab178945, Cambridge, UK), anti-COX2 (Affinity, AF7003, Changzhou, China), anti-actin (Affinity Biosciences, AF7018, Changzhou, China), anti-ARG1 (Proteintech, 66129, Wuhan, China), anti-IL-1β (Proteintech, 26048, Wuhan, China), anti-GAPDH (Bioss, bs-41373R, Beijing, China), anti-IL-6 (Affinity, DF6087, Changzhou, China), anti-TNFα (Affinity, AF7014, Changzhou, China), anti-IBA1 (Affinity, DF6442, Changzhou, China). The membranes were washed to remove unbound antibodies and then incubated with HRP-conjugated secondary antibodies at room temperature for 45 min. Protein bands were visualized one by one with an ECL kit (Millipore, Cat#6-201BP, Beijing, China). The uncropped immunoblot data were uploaded as a Supplementary File. Densitometry analysis was performed using Image J Software, Version 1.54p (Rawak Software Inc., Stuttgart, Germany) relative to the loading control, β-actin; GAPDH; or tubulin. The average protein levels of control group cells or control mice from each independent experiment or mice were set as 1, and relative changes were calculated.
Male, 4-week-old C57BL/6J mice were obtained from Peking SiPeiFu Biotechnology Co., Ltd. (Beijing, China), with quality certificate number No.110324241107423512. After acclimation, mice were weighted and divided randomly into 6 groups, including control, LPS control mice, LPS + dexamethasone (Dex, 15 mg/kg), and LPS + HN-005 (10, 20, 40 mg/kg). Mice were intraperitoneally injected with dexamethasone or compound 5 for 2 days, while the control and LPS control group was intraperitoneally injected with an identical volume of 200 μL 0.9% saline. A total of 6 mg/kg LPS was intraperitoneally injected on the second day beyond the control group. After treatment, the mice were weighed and euthanized for brain anatomy.
Mice were anesthetized and their chest dissected to expose the heart sufficiently. The infusion needle penetrated the ventriculus sinister by about 0.5 cm and perfused it with 40 mL sterile PBS buffer until the liver turned white. Then, the prefrontal cortex and hippocampus were separated and preserved. For the immunochemistry assay, the cortex and hippocampus were fixed at 4% PFA at room temperature for 2–4 days. The fixed brain was embedded into paraffin and sectioned at 5 μm in the coronal plane using a sliding microtone (Leica, CM1950, Weztlar, Germany), then blocked with 5% goat serum TBS buffer at room temperature for one hour. After blocking, tissue slides were incubated with the first antibody against IBA1 (Affinity, DF6442, Changzhou, China) at 4 °C for 16 h, then rinsed with TBST three times and incubated with Alex flour 555 conjugated goat anti-rabbit secondary antibody (1:500) and DAPI (1:1000) at 4 °C overnight. A section incubated only with the secondary antibody was used as a negative control. For HE staining, the section was stained with an H&E staining kit (Servicebio, G1076, Wuhan, China) per the manufacturer’s instruction. Fluorescence images were acquired using a confocal microscope (Olympus, Tokyo, Japan). […]

[4] = test system: Amaranthus hypochondriacus; parameters: method as in PMID 25603174; conditions: read-out: IC50 herbicidal effect (radicle growth); cited from earlier work
Vero cells = test system: Vero cells; parameters: method as in PMID 25734623; conditions: noncancerous Vero cells; read-out: IC50 toxicity; cited from earlier work
Lactuca sativa = test system: Lactuca sativa; parameters: method as in doi:10.1584/jpestics.14.223; conditions: 250 ppm; cited from earlier work
[5] = test system: LPS-treated BV2 microglia cells; experiment: Microglia polarization markers ARG 1 and iNOS (immunofluorescence, immunoblot); format: cell-based; conditions: 2.5, 5, 10 μM, LPS 0.5 μg/mL, 24 h
Description: as §2, with “overnight.” for “overnight. The used antibodies were listed as follows: anti-iNOS (Abcam, ab178945, Cambridge, UK), anti-COX2 (Affinity, AF7003, Changzhou, China), anti-actin (Affinity Biosciences, AF7018, Changzhou, China), anti-ARG1 (Proteintech, 66129, Wuhan, China), anti-IL-1β (Proteintech, 26048, Wuhan, China), anti-GAPDH (Bioss, bs-41373R, Beijing, China), anti-IL-6 (Affinity, DF6087, Changzhou, China), anti-TNFα (Affinity, AF7014, Changzhou, China), anti-IBA1 (Affinity, DF6442, Changzhou, China).”
For the immunofluorescence assay, cells were fixed with pre-cold ethanol at –20 °C, then blocked and incubated with anti-iNOS (Abcam, ab178945) and mouse anti-ARG 1 (Proteintech, 66129) at 4 °C overnight. […] Fluorescence images were acquired using a confocal microscope (Olympus, Tokyo, Japan).

BV2 microglial cells = experiment: BV2 cell viability / proliferation (CCK-8, cell count); format: cell-based; conditions: 20 µM
Description: as §1, §3

APP/PS1 transgenic mice = test system: APP/PS1 transgenic mice; parameters: method as in PMID 39004599, PMID 25686105; conditions: cited from earlier work
[6] = test system: early-stage PD participants; parameters: method as in PMID 38504306; conditions: Phase II trial NCT04542915; cited from earlier work
AD mice = test system: AD mice; parameters: method as in PMID 38616356, PMID 31590042; conditions: relative to untreated AD mice; cited from earlier work
NF-κB signaling = test system: NF-κB signaling; parameters: method as in PMID 38616356, PMID 31590042; conditions: BV2 microglia; read-out: IC50 suppressing NF-κB signaling; cited from earlier work
[7] = test system: LPS-activated BV-2 microglia; parameters: method as in PMID 34605647; conditions: read-out: IC50 suppressing nitric oxide production; cited from earlier work

For CC1C(O)CCC2=CC(=O)C(C(C)(C)O)=CC21C (stereo not shown) [Compound 2, Phomenone D], the “NO inhibition (SAR statement)” value [1] was “high reduction in NO inhibition”.
In the case of C=C(C)[C@]1(O)C[C@@]2(C)C(=CC1=O)CC[C@@H](O)[C@@H]2C [Compound 3, Hydroxypetasol], the “NO inhibition (SAR statement)” value [1] is reported as “high reduction in NO inhibition”.
In the case of C=C(C)[C@@]12O[C@@H]1[C@@]1(C)C(=C[C@@H]2O)CC[C@@H](O)[C@@H]1C [Compound 5, dihydrosporogen AO-1], the “level of inflammatory markers IBA1, COX-2, TNF-α, IL-1β, IL-6” value [2] is listed as “efficiently reversed the increases in the level of inflammatory markers”, the IC50 [3] is listed as 38 µM and the ED50 cytotoxicity (Ehrlich carcinoma cells) is listed as 400 µM. The “activation of NF-κB axis (phosphorylated NF-κB p65)” value (NF-κB p65) was “dose-dependently reversed the activation of the NF-κB axis”, the “total level of NF-κB p65” value (NF-κB p65) was “no major change” and the IC50 (Echinochloa crus-galli) was 300 µM. For the same compound, the “expression levels of IBA1 in cortex” value (LPS-treated mice) was “markedly decreased the expression levels of IBA1”, the “inflammatory markers iNOS, COX2, IL-1β, IL-6 in cortex (mRNA and protein)” value (LPS-treated mice) was “efficiently suppressed the activation of these inflammatory markers” and the “protein level of ARG 1 in cortex” value (LPS-treated mice) was “dose-dependently increased the protein level of ARG 1”. For the same compound, the “neuroinflammation in hippocampus tissue” value (LPS-treated mice; 10, 20, 40 mg/kg) was “inhibits neuroinflammation in the hippocampus tissue”, the IC50 [4] was 170 µM and the IC50 (Vero cells) was 24000 µM. The “inhibition (radicle growth)” value (Lactuca sativa) was 70%, the “reduction in NO content” value ([1]; 24 h) was 78% and the EC50 ([1]; Mus musculus, BV-2, LPS-treated BV2 microglial cells, 24 h, read-out: EC50 in decreasing cellular NO production) was 3.11 µM. For the same compound, the “selectivity index (SI)” value ([1]; cytotoxicity IC50 vs NO EC50, BV2 cells) was 12.2, the “iNOS and ARG 1 protein levels” value [5] was “dose-dependently reversed iNOS elevations and ARG 1” and the “ratio of ARG 1 to iNOS” value [5] was “corrected the decreased ratio of ARG 1 to iNOS”.
In the case of C=C(C)[C@@H]1C[C@@]2(C)C(=CC1=O)CC[C@@H](O)[C@@H]2C [Compound 8, petasol], the “proliferation inhibition (cytotoxicity)” value (BV2 microglial cells) is reported as 35–85%.
With C=C(C)C1=C[C@@]2(C)C(=CC1=O)CC[C@@H](O)[C@@H]2C [Compound 9, 6-dehydropetasol] the “proliferation inhibition (cytotoxicity)” value (BV2 microglial cells) was 35–85%.
In the case of C[C@@H]1C[C@H]2[C@@H]3CCC4=CC(=O)C=C[C@]4(C)[C@@]3(F)[C@@H](O)C[C@]2(C)[C@@]1(O)C(=O)CO [Dex, dexamethasone, reference compound], the “expression levels of IBA1 in cortex” value (LPS-treated mice) is reported as “markedly decreased the expression levels of IBA1”, the “inflammatory markers iNOS, COX2, IL-1β, IL-6 in cortex (mRNA and protein)” value (LPS-treated mice) is reported as “efficiently suppressed the activation of these inflammatory markers” and the “protein level of ARG 1 in cortex” value (LPS-treated mice) is reported as “no induction effect was observed”. For the same compound, the “reduction in NO content” value ([1]; 24 h) was 77%.
For CC(C)(O)c1coc(S(=O)(=O)NC(=O)Nc2c3c(cc4c2CCC4)CCC3)c1 [MCC950], the “attenuation of hippocampal IL-1β production” value (APP/PS1 transgenic mice) is listed as 68.5%.
For Oc1ccc(/C=C/c2cc(O)cc(O)c2)cc1 [Resveratrol], the “reduction in CSF TNF-α levels” value [6] is given as 31.6%.
In the case of COc1cc(/C=C/C(=O)CC(=O)/C=C/c2ccc(O)c(OC)c2)ccc1O [curcumin], the “improvement in radial arm maze errors” value (AD mice) is listed as 37.2% and the IC50 (NF-κB signaling) is listed as 4.7 µM.
In the case of C=C1CO[C@@]2(O)CC3=CC(=O)C(O)=C(C)[C@@]3(C)C[C@@]12O [septoreremophilane F], the IC50 [7] is listed as 12 ± 0.32 µM.

— paper PMC11943946, “Anti-Neuroinflammatory Eremophilane Sesquiterpenoids from Marine-Derived Fungus Phoma sp. DXH009” (Marine Drugs, 2025)
